Molecular target: T1, hCXCR2 (Homo sapiens, UniProt P25025)
T1 construct: purchased Biosignal; host or cells: CHO cells overexpressing hCXCR2 (membrane preparation)
T1 sequence (P25025 1-360): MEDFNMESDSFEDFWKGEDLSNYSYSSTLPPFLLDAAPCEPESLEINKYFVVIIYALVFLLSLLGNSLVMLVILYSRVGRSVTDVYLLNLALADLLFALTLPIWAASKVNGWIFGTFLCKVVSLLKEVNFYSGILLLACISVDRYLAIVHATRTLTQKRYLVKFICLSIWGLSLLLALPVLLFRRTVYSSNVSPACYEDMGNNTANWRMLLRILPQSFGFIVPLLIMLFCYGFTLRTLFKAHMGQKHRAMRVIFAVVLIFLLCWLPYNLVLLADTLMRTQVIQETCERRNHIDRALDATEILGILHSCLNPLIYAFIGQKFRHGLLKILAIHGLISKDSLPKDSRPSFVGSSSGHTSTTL
Assay: CXCR2 SPA receptor binding assay
Settings: hCXCR2-CHO overexpressing membranes, [125I]-IL-8 ligand 0.1 nM
Description: For each well of a 96 well plate, a reaction mixture of 4 μg hCXCR2-CHO overexpressing membranes (Biosignal) and 200 μg/well WGA-SPA beads (Amersham) in 100 μl was prepared in CXCR2 assay buffer (25 mM HEPES, pH 7.4, 2 mM CaCl2, 1 mM MgCl2). A 0.4 nM stock of ligand, [125I]-IL-8 (NEN), was prepared in the CXCR2 assay buffer. […] stock solutions of test compounds were prepared in DMSO (Sigma). A 6× stock solution of GRO-α (R&D) was prepared in CXCR2 assay buffer. The above solutions were added to a 96-well assay plate (PerkinElmer or Coming) as follows: 10 μl test compound or DMSO, 40 ul CXCR2 assay buffer or GRO-α stock, 100 μl of reaction mixture, 50 μl of ligand stock (Final [Ligand]=0.1 nM). When 40× stock solutions of test compounds in DMSO were prepared, then the above protocol was used except instead 5 μl test compound or DMSO and 45 μl CXCR2 assay buffer were used. The assay plates were shaken for 5 minutes on a plate shaker, then incubated for 2-8 hours before cpm/well were determined in Microbeta Trilux counter (PerkinElmer). % Inhibition of total binding minus non-specific binding (250 nM Gro-α or 50 μM antagonist) was determined and IC50 values calculated.

`O=C(c1cccc(Nc2c(Nc3ccccc3)c(=O)c2=O)c1O)N1CCOCC1` [Example 45] was tested, and the IC50 was 0.01 µM.
Compound `CC(C)c1ccccc1Nc1c(Nc2cccc(C(=O)N(C)C)c2O)c(=O)c1=O` [Example 64] has an IC50 of 0.028 µM.
